Laboratory results: PMC6332449, “Pharmacological Validation of N-Myristoyltransferase as a Drug Target in Leishmania donovani” (ACS Infectious Diseases, 2018)
Read-outs that look alike come from different tables or passages of the source.

Tests used:
[1] = system: L. donovani amastigotes (LV9); assay: mouse model of VL (BALB/c mice infected with L. donovani LV9)
[2] = system: L. donovani intracellular amastigotes; assay: L. donovani intramacrophage (intracellular amastigote) assay; format: cell-based, Leishmania donovani; conditions: read-out: intramacrophage EC50
Procedure: (§1) The clonal L. donovani cell line LdBOB (derived from MHOM/SD/62/1S-CL2D) was used in our in vitro compound screening and mechanism of action studies. Promastigotes were grown at 26 °C in modified M199 media with axenic amastigotes grown at 37 °C, as previously described.[35] All animal studies were carried using L. donovani (LV9; WHO designation: MHOM/ET/67/HU3).
(§2) These assays were carried out as previously described.[25],[36],[37]

[3] = system: L. donovani axenic amastigotes; assay: L. donovani axenic amastigote compound sensitivity assay; format: cell-based, Leishmania donovani; conditions: read-out: axenic amastigote EC50
Procedure: as §1, §2

THP-1 = THP-1 host cell toxicity in the intramacrophage assay; format: cell-based
Procedure: as §2

[4] = system: L. donovani promastigotes; assay: L. donovani promastigote compound sensitivity assay; format: cell-based, Leishmania donovani; conditions: read-out: promastigote EC50
Procedure: as §1, §2

Vero cells = assay: host Vero cell toxicity; format: cell-based; conditions: Chlorocebus sabaeus, read-out: EC50 against host Vero cells
Trypanosoma brucei [5] = conditions: cited from earlier work
[6] = system: intracellular amastigote form of T. cruzi; assay: T. cruzi intracellular amastigote assay; format: cell-based; conditions: Trypanosoma cruzi; read-out: EC50 against T. cruzi intracellular amastigotes
L. major NMT (LmNMT) = molecular target: T1, L. major NMT (LmNMT) (Leishmania major, UniProt Q4Q5S8); assay: LmNMT enzymatic assay (scintillation proximity, [3H]myristoyl-CoA, CAP5.5 peptide); format: biochemical
T1 construct: Recombinant LmNMT was expressed and purified as previously described; made in house
T1 sequence (Q4Q5S8 entry or part of it): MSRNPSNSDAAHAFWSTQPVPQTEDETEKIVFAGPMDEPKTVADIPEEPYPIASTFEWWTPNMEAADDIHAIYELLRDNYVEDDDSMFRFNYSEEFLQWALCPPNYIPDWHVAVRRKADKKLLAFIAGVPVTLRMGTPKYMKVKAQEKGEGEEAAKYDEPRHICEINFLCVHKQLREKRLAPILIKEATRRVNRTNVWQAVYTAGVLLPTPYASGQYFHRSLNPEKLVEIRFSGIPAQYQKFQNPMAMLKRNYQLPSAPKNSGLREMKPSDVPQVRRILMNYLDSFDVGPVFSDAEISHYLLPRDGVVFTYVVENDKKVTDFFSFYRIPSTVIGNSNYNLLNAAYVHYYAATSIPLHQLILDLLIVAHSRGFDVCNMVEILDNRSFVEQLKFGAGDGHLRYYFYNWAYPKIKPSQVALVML

human NMT (HsNMT) = molecular target: T2, human NMT (HsNMT) (Homo sapiens, UniProt P30419); assay: counter-screen against human NMT; format: biochemical
T2 sequence (P30419 1-496): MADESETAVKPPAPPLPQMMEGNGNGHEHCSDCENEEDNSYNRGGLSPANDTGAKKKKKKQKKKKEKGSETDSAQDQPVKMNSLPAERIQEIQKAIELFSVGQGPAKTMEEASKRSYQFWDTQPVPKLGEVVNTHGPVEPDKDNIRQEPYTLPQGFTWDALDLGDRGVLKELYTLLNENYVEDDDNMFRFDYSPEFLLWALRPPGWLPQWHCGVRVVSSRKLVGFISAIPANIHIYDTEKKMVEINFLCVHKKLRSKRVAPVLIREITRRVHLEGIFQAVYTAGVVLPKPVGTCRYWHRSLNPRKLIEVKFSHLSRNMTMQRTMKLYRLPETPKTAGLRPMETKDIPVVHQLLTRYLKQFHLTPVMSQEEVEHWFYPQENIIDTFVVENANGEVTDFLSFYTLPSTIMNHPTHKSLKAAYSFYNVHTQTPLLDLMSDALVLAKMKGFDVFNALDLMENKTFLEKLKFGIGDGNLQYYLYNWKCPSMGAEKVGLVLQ

[7] = system: Trypanosoma brucei N-myristoyltransferase (TbNMT); conditions: cited from earlier work
Trypanosoma brucei [8] = system: Trypanosoma brucei; parameters: method as in PMID 20360736; conditions: cited from earlier work
[9] = Homo sapiens, THP-1, read-out: THP-1 EC50
[10] = Leishmania donovani, L. donovani intracellular amastigotes
[11] = Leishmania donovani, L. donovani LdBOB
[12] = Homo sapiens, THP-1; read-out: THP-1 EC50

In the case of CCCCCCCCCCCCCCCCOP(=O)([O-])OCC[N+](C)(C)C [miltefosine], the “reduction in liver parasite burden (LDU) versus vehicle” value (shortened to “reduction in liver parasite burden”) ([1]; 30 mg kg^-1 orally q.d. for 5 days) is reported as 88%.
Cc1nn(C)c(C)c1N(C)S(=O)(=O)c1c(Cl)cc(CCCC2CCN(C)CC2)cc1Cl [compound 3] showed an EC50 ([2]; Leishmania donovani) of 7.1 ± 1.1 µM, an EC50 ([3]; Leishmania donovani) of 8.2 ± 0.6 µM and an EC50 (THP-1; [9]) of over 50 µM. The EC50 ([4]; Leishmania donovani) was 0.07 ± 0.004 µM.
In the case of Cc1nn(C)c(C)c1N(C(F)F)S(=O)(=O)c1c(Cl)cc(CCCC2CCN(C)CC2)cc1Cl [compound 2], the “reduction in liver parasite burden” value ([1]; 50 mg kg^-1 orally b.i.d. for 5 days) is reported as 52%, the EC50 ([2]; Leishmania donovani) is reported as 2.4 ± 0.8 µM and the EC50 ([3]; Leishmania donovani) is reported as 0.2 ± 0.006 µM. The EC50 (Vero cells) was 5.1 µM, the EC50 (THP-1; [9]) was 15.8 µM and the “efficacy in the stage 2 mouse model (in words)” value (Trypanosoma brucei [5]) was “moderate efficacy”. For the same compound, the EC50 ([4]; Leishmania donovani) was 0.04 ± 0.001 µM and the EC50 [6] was 0.47 µM.
Cc1nn(C)c(C)c1N(C)S(=O)(=O)c1c(Cl)cc(N2CCN(C(=O)c3cn[nH]c3)CC2)cc1Cl [compound 6, 4-(4-(1H-Pyrazole-4-carbonyl)piperazin-1-yl)-2,6-dichloro-N-methyl-N-(1,3,5-trimethyl-1H-pyrazol-4-yl)benzenesulfonamide] gave an IC50 (L. major NMT (LmNMT)) of 0.06 µM, an EC50 [2, 10] of over 50 µM and an IC50 (human NMT (HsNMT)) of 0.1 µM. For the same compound, the EC50 [3, 11] was over 50 µM, the EC50 (THP-1; [12]) was over 50 µM and the EC50 [4, 11] was over 50 µM.
Cc1nn(C)c(C)c1N(C)S(=O)(=O)c1c(Cl)cc(N2CCN(C(=O)c3ccn[nH]3)CC2)cc1Cl [compound 4, 4-(4-(1H-Pyrazole-5-carbonyl)piperazin-1-yl)-2,6-dichloro-N-methyl-N-(1,3,5-trimethyl-1H-pyrazol-4-yl)benzenesulfonamide] showed an IC50 (L. major NMT (LmNMT)) of 0.03 µM, an EC50 [2, 10] of over 50 µM and an IC50 (human NMT (HsNMT)) of 0.02 µM. For the same compound, the EC50 [3, 11] was 2.7 ± 0.08 µM, the EC50 (THP-1; [12]) was over 50 µM and the EC50 [4, 11] was 18.3 ± 0.1 µM.
Compound Cc1nn(C)c(C)c1N(C)S(=O)(=O)c1c(Cl)cc(N2CCN(C(=O)c3cccnc3)CC2)cc1Cl [compound 7, 2,6-Dichloro-N-methyl-4-(4-nicotinoylpiperazin-1-yl)-N-(1,3,5-trimethyl-1H-pyrazol-4-yl)benzenesulfonamide] has an IC50 (L. major NMT (LmNMT)) of 0.1 µM, an EC50 [2, 10] of over 50 µM and an IC50 (human NMT (HsNMT)) of 0.5 µM. The EC50 [3, 11] was 0.3 ± 0.01 µM, the EC50 (THP-1; [12]) was over 50 µM and the EC50 [4, 11] was 5.8 ± 0.4 µM.
Compound Cc1nn(C)c(C)c1N(C)S(=O)(=O)c1c(Cl)cc(N2CCN(C(=O)c3cnn(C)c3)CC2)cc1Cl [compound 5, 2,6-Dichloro-N-methyl-4-(4-(1-methyl-1H-pyrazole-4-carbonyl)piperazin-1-yl)-N-(1,3,5-trimethyl-1H-pyrazol-4-yl)benzenesulfonamide] has an IC50 (L. major NMT (LmNMT)) of 0.08 µM, an EC50 [2, 10] of over 50 µM and an IC50 (human NMT (HsNMT)) of 0.08 µM. The EC50 [3, 11] was 9.2 ± 0.4 µM, the EC50 (THP-1; [12]) was over 50 µM and the EC50 [4, 11] was 10 ± 0.4 µM.
In the case of Cc1nn(C)c(C)c1N[S+](=O)([O-])c1ccc(CCCC2CCNCC2)cc1 [compound 1], the IC50 (L. major NMT (LmNMT); 5 nM LmNMT, 0.5 μM CAP5.5, 0.125 μM myristoyl-CoA, read-out: LmNMT IC50) is reported as 0.4 µM, the EC50 ([2]; L. donovani intracellular amastigotes) is reported as over 50 µM and the EC50 ([3]; L. donovani LdBOB) is reported as over 50 µM. The EC50 (THP-1; read-out: THP-1 EC50) was over 50 µM and the EC50 ([4]; L. donovani LdBOB) was over 50 µM.
In the case of Cc1nn(C)c(C)c1NS(=O)(=O)c1c(Cl)cc(-c2ccnc(N3CCNCC3)c2)cc1Cl [DDD85646], the “inhibition of TbNMT (in words)” value [7] is listed as “low nM inhibitor”, the “efficacy in mouse models of stage 1 HAT (in words)” value (Trypanosoma brucei [8]) is listed as “curative” and the “activity in the stage 2 HAT mouse model (in words)” value (Trypanosoma brucei [5]) is listed as “not active”.
With Cc1nn(C)c(C)c1N(C)S(=O)(=O)c1c(Cl)cc(N2CCN(C(=O)Cc3ccccc3)CC2)cc1Cl [compound 9, 2,6-Dichloro-N-methyl-4-(4-(2-phenylacetyl)piperazin-1-yl)-N-(1,3,5-trimethyl-1H-pyrazol-4-yl)benzenesulfonamide] the IC50 (L. major NMT (LmNMT)) was 10 µM, the “potency against LmNMT (in words)” value (L. major NMT (LmNMT)) was “poor activity” and the EC50 [2, 10] was 40.5 ± 13.4 µM. It also gave an IC50 (human NMT (HsNMT)) of 6.3 µM, an EC50 [3, 11] of 2.2 ± 0.03 µM and an EC50 (THP-1; [12]) of over 50 µM. It also gave an EC50 [4, 11] of 6.3 ± 0.3 µM.
With Cc1nn(C)c(C)c1N(C)S(=O)(=O)c1c(Cl)cc(N2CCN(C(=O)c3ccc(N)cc3)CC2)cc1Cl [compound 8, 4-(4-(4-Aminobenzoyl)piperazin-1-yl)-2,6-dichloro-N-methyl-N-(1,3,5-trimethyl-1H-pyrazol-4-yl)benzenesulfonamide] the IC50 (L. major NMT (LmNMT)) was 0.03 µM, the EC50 [2, 10] was over 50 µM and the IC50 (human NMT (HsNMT)) was 0.008 µM. It also gave an EC50 [3, 11] of 5.1 ± 0.2 µM, an EC50 (THP-1; [12]) of over 50 µM and an EC50 [4, 11] of 8.2 ± 0.5 µM.
For O.O.O.O.O.O.O.O.O.O=C([O-])[C@@H]1[O][Sb](=[O])([O][Sb]2(=[O])[O][C@H]([C@H](O)CO)[C@H](O)[C@H](C(=O)[O-])[O]2)[O][C@H]([C@H](O)CO)[C@@H]1O.[Na+].[Na+].[Na+] (some centres unmarked) [sodium stibogluconate], the “reduction in liver parasite burden” value ([1]; 15 mg kg^-1 subcutaneous q.d. for 5 days) was 52%.
